“Also recorded” adds a separate entry of the source.
Columns and labels:
islet amyloid = conditions: ref [27]; cited from earlier work
Text: In the present study, a pentapeptide inhibitor Phe-Leu-Pro-Asn-Phe (FLPNF) that contains only five amino acids has been designed. […] Even so, FLPNF was optimally designed and consisted of ...

hIAPP [1] = molecular target: T1, hIAPP (Homo sapiens, UniProt P10997); conditions: ref [25], cited from earlier work; for inhibition of hIAPP aggregation in vitro: [26]
T1 construct: hormone secreted by β-cells consisting of 37 amino acid residues; purchased ChinaPeptide Co. Ltd. (Shanghai, China); host or cells: chemical synthesis
T1 sequence (P10997 34-70 limits assumed): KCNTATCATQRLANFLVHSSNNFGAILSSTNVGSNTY
Text: In the present study, a pentapeptide inhibitor Phe-Leu-Pro-Asn-Phe (FLPNF) that contains only five amino acids has been designed. […] After that, the ...

fibrils of hIAPP = conditions: ref [25]; cited from earlier work
Text: In the early research, SNNFGA and GAILSS could not completely prevent the formation of fibr ...

INS-1 cells = assay: Cell proliferation assay (MTS), hIAPP cytotoxicity in INS-1 cells
Description: The INS-1 cells at a density of 2 × 10^4 were plated in a 96-well plate. […] The untreated control cells received equal fresh medium. The medium of each group contained 0.2 μL DMSO, equal to 0.2% DMSO. Consequently, 10 μL MTS solution was added to each well and incubated for additional 2 hours. The optical density (OD) values were measured at 490 nm using a PowerWave XS2 microplate spectrophotometer (Thermo Scientific, USA). Each experiment was repeated thrice.

hIAPP [2] = molecular target: T1, hIAPP; assay: Thioflavin T fluorescence assay, time course; format: biochemical; conditions: for ThT fluorescence intensity compared to hIAPP group, significance: PBS pH 7.4, 37°C, unpaired t-test
hIAPP [3] = molecular target: T1, hIAPP; assay: Thioflavin T fluorescence assay, concentration dependence; format: biochemical; conditions: PBS, 24 hours, 37°C
Description: The stock solutions were aliquoted and stored at -80°C according to the instructions.
The plates were incubated at 37°C for 0, 12, 24, and 48 hours. Finally, the fluorescence image was detected by an XDY-100 fluorescence microscope (Zhongheng, Shanghai, China). Subsequently, the fluorescence intensity values of each group were measured by a Fluoroskan Ascent FL luminescence meter (Thermo Scientific, USA) using an excitation λ of 435 nm and an emission λ of 485 nm. At each time course, the fluorescence intensity values of the control group were set as 1, while the values of test groups relative to the control group were set as fluorescence intensity (A.U.) and used for statistical analysis. Each experiment was repeated thrice.
The fluorescence images and the fluorescence intensity values of each group were collected after incubating for 24 hours. Each experiment was repeated thrice.

hIAPP amyloid fibrils = assay: Transmission electron microscopy of hIAPP amyloid fibrils; format: biochemical, human; conditions: PBS, 24 hours, 37°C, 2% phosphotungstic acid stain; for hIAPP fibril formation by TEM, with added peptide: 100 μM peptide + 10 μM hIAPP
Description: TEM was used to directly observe the relative density and morphological changes of hIAPP amyloid fibrils. […] A volume of 10 μL of each sample was placed on mesh copper grids (Servicebio, Wuhan, China) and was covered by a carbon-stabilized formvar film. After 3 min, excess fluid was removed, and the grids were stained with 2% phosphotungstic acid for 3 min. Samples were analyzed using a HT7700 transmission electron microscope (Hitachi, Japan).

hIAPP [4] = molecular target: T1, hIAPP; assay: Biolayer interferometry, FLPNF immobilized; format: binding; conditions: hIAPP 400 μM (method) / 100 μM (Figure 5 legend)
Description: Experiments were performed by Shuangtian Biotech Co. Ltd. FLPNF were reconstituted in PBS (pH = 7.4) and immobilized on aminopropylsilane (APS) biosensors. […] This was followed by a 600 sec dissociation phase in dissociation buffer (50% DMSO+0.05% PBST) in PBS. A response unit represented the bonding height on the biosensor. The association and dissociation curves were analyzed and constructed by Octet K2 biolayer interferometry.

D-ANFLVH
reduction of amyloid aggregates in vivo (islet amyloid): could reduce the islet amyloid accumulation in vivo; also recorded: can reduce the formation of amyloid aggregates in vivo

GAILSS
inhibition of hIAPP aggregation in vitro (hIAPP [1]): can inhibit hIAPP aggregation in vitro | prevention of hIAPP fibril formation on TEM images (fibrils of hIAPP): could not completely prevent the formation of fibrils of hIAPP

NFGAIL [reference compound]
reduction of cytotoxic effects of hIAPP in INS-1 cells (INS-1 cells; 100 μM NFGAIL + 10 μM hIAPP, 24 hours, MTS, OD 490 nm): no effect of reducing the cytotoxic effects of hIAPP | ThT fluorescence intensity compared to hIAPP group (luminescence meter) (hIAPP [2]; 100 μM NFGAIL + 10 μM hIAPP, PBS pH 7.4, 20 μM ThT, 37°C, ex 435 nm, em 485 nm, repeated thrice): did not decrease | ThT fluorescence signal compared to 0 μM group (hIAPP [3]; any concentration of NFGAIL (20-400 μM) + 10 μM hIAPP): no reduction | hIAPP fibril formation by TEM, with added peptide (hIAPP amyloid fibrils): did not reduce or even increase the amount of the fibril formation; also recorded: No reduction of the fibrils | effect on hIAPP fibril formation (hIAPP [1]; residues 22–27 of hIAPP, negative control): could enhance hIAPP fibril formation

NFGAILPP
inhibition of hIAPP aggregation in vitro (hIAPP [1]): can inhibit hIAPP aggregation in vitro

NYGAILSS
inhibition of hIAPP aggregation in vitro (hIAPP [1]): can inhibit hIAPP aggregation in vitro

Phe-Leu-Pro-Asn-Phe [FLPNF]
INS-1 cell viability compared to hIAPP group (INS-1 cells; 100 μM FLPNF + 10 μM hIAPP, 24 hours, OD 490 nm, P < 0.05, unpaired t-test, repeated thrice): significant improvement in cell viability | INS-1 cell viability, FLPNF alone (INS-1 cells; FLPNF alone, no hIAPP, MTS): no direct effect on the viability of INS-1 cells; also recorded: no direct effect on cell viability | INS-1 cell viability compared to control group, with FLPNF + hIAPP (INS-1 cells; hIAPP with FLPNF at 1 : 10 ratio, 24 hours, MTS): still lower | ThT fluorescence intensity compared to hIAPP group, significance (hIAPP [2]; 100 μM FLPNF + 10 μM hIAPP, 24 h, P < 0.05, ex 435 nm, em 485 nm, repeated thrice): significantly lowered | ThT fluorescence intensity compared to hIAPP group, significance (hIAPP [2]; 100 μM FLPNF + 10 μM hIAPP, 48 h, P < 0.01, ex 435 nm, em 485 nm, repeated thrice): significantly lowered | ThT fluorescence intensity compared to hIAPP alone (luminescence meter) (hIAPP [2]; 100 μM FLPNF + 10 μM hIAPP, PBS pH 7.4, 20 μM ThT, 37°C, 12, 24 and 48 hours, ex 435 nm, em 485 nm, repeated thrice): decreased the fluorescence intensity compared to hIAPP alone | ThT fluorescence signal (fluorescence microscope) (hIAPP [2]; 100 μM peptide + 10 μM hIAPP, PBS pH 7.4, 20 μM ThT, 37°C, 24 and 48 hours): strong reduction of the fluorescence signal | inhibition of hIAPP amyloid aggregation (hIAPP [2]; 10 : 1 molar ratio FLPNF to hIAPP, in vitro, ThT): strongly inhibited the amyloid aggregation of hIAPP | inhibitory effect at 48 hours (hIAPP [2]; in vitro, 48 hours): still had an inhibitory effect | inhibition of amyloid formation (hIAPP [2]; tenfold molar excess to hIAPP, PBS, 24 hours): partially inhibited amyloid formation | association response (response units) (hIAPP [4]; FLPNF immobilized on APS biosensor, PBS pH 7.4, association 300 sec, Octet K2): approximately 0.02 nm | interaction between FLPNF and hIAPP (hIAPP [4]; biolayer interferometry, immobilized FLPNF): strong interaction | dissociation (hIAPP [4]; dissociation phase 600 sec, 50% DMSO+0.05% PBST in PBS, Octet K2): tardily reversible; also recorded: slowly dropped to 0 | ThT green fluorescence signal with increasing concentrations (fluorescence microscope) (hIAPP [3]; 0, 20, 50, 100, 200, 400 μM FLPNF + 10 μM hIAPP): gradually decreased | ThT fluorescence intensity with increasing concentrations (luminescence meter) (hIAPP [3]; 0, 20, 50, 100, 200, 400 μM FLPNF + 10 μM hIAPP, repeated thrice): gradually reduced | ThT fluorescence intensity compared to 0 μM group (hIAPP [3]; 100, 200 and 400 μM FLPNF + 10 μM hIAPP, P < 0.05, unpaired t-test, repeated thrice): significantly lowered | hIAPP fibril formation by TEM, with added peptide (hIAPP amyloid fibrils): reduced the amounts of fibril formation; also recorded: not completely prevented but were reduced in density; also recorded: less numerous but appeared to be more thickened

SNNFGA
inhibition of hIAPP aggregation in vitro (hIAPP [1]): can inhibit hIAPP aggregation in vitro | prevention of hIAPP fibril formation on TEM images (fibrils of hIAPP): could not completely prevent the formation of fibrils of hIAPP

human islet amyloid polypeptide (KCNTATCATQRLANFLVHSSNNFGAILSSTNVGSNTY; Islet amyloid polypeptide; UniProt P10997 34-70, looked up) [hIAPP, hormone secreted by β-cells consisting of 37 amino acid residues]
INS-1 cell viability compared to control group (INS-1 cells; 10 μM hIAPP alone, 24 hours, OD 490 nm, P < 0.001, unpaired t-test, repeated thrice): significantly decreased the cell viability | fibril morphology of hIAPP alone by TEM (hIAPP amyloid fibrils; 10 μM hIAPP alone): typical dense fibrils; also recorded: typical morphology and formation of dense aggregates

Source: publication PMC6374824 (International Journal of Endocrinology, 2019)
